pIC50: −log10 of the molar value. Read-outs that look alike come from different tables or passages of the source.
Assays:
[1] = system: histamine releasing reaction; test: Test of suppressing histamine releasing reaction (abdominal cavity cells of rats sensitised with anti-DNP-As serum, stimulated with DNP-As); assay type: cell-based, rat (male Wister); details: Rattus norvegicus; cells 10^5 cell/ml stimulated with 1 μg/ml DNP-As; test compounds 10^-5 -10^-10 M; read-out: IC50 (suppression of histamine releasing reaction)
Protocol: Test of suppressing histamine releasing reaction
Rat anti-dinitrophenylated ascaris protein (referred to hereinafter as DNP-As) serum was prepared according to the method described by Tada, T. and Okumura, K., J. Immun., 106 (4), 1971. Briefly, 1×10^10 of inviable pertussis and 1 mg of DNP-As were administered subcutaneously to the paw of female Brown Norway rats having a body weight of 200 g. After five days, 0.5 mg of DNP-As was further administered intramuscularly to the rear of the animals. Blood samples were taken after three days of the administration to prepare anti-serum.
A 1 ml portion of the serum diluted four times with physiological saline was administered intraperitoneally to male Wister rats. After two days, abdominal cavity was rinsed with phosphate buffer to recover the cells within the abdominal cavity. After the cell concentration was adjusted to 10^5 cell/ml, the cells were stimulated with 1 μg/ml of DNP-As. The amount of histamine released into the supernatant was measured according to the method described by Shore, P. A., Burkhalter, A. H. and Chon, V. H. Jr., J. Pharm. Exp. Ther., 127, 182-186 (1959).
A dose for suppressing 50% of the histamine releasing reaction, i.e., IC50 value, was calculated from the amounts of histamine released in the group treated with the test compounds in the molar concentrations (M) of 10^-5 -10^-10 and in the control group. The IC50 value as the suppressing effect of the drugs is shown in Table 6 with the IC50 value of sodium chromoglycic acid selected as the control compound.

[2] = system: allergic edema reaction at paw; test: Test for suppressing immediate and delayed allergic reaction (allergic edema reaction at paw, DNP-OA); assay type: in vivo, rat (male Wister); details: Rattus norvegicus, oral; for inhibition in vivo at 30 mg/kg: dose: 30 mg/kg of body weight
Protocol: Test for suppressing immediate and delayed allergic reaction
1×10^10 of inviable pertussis and 1 mg of dinitrophenylated ovalbumin (DNP-OA) were administered subcutaneously to the three paws except the right hind paw of male Wister rats having a body weight of 200 g. After 10 days, 5 μg of DNP-OA was further administered subcutaneously to the right hind paw of the animals to induce the allergic edema reaction at paw. The allergy suppressing effect of the test compounds was examined with reference to the edema volumes after 30 minutes and 8 hours of the induction of the allergic reaction as the immediate and delayed allergic reactions, respectively.
[…] On the other hand, only a solution of 0.25% Tween 80 was orally administered to rats as the untreated control, and 100 mg/kg of sodium chromoglycate subcutaneously or orally to rats as the positive control.
The rate of suppressing the allergic edema reaction at paw was calculated from the following equation.
Suppression rate of the allergic edema reaction at paw
A is an average edema volume in the control, and
B is an average edema volume in the drug treated group.

[3] = 0.5 h, 30 minutes after induction, read-out: Suppressing Rate, Immediate Reaction
[4] = 8 hours after induction, read-out: Suppressing Rate, Slow reaction
[5] = 0.5 h, edema volume 30 minutes after induction, read-out: Suppressing Rate, Immediate Reaction
[6] = edema volume 8 hours after induction, read-out: Suppressing Rate, Slow reaction

Compound | pIC50 [1] | also measured
N#CC=Cc1ccc2c(=O)c3[nH]nnc3c(=O)[nH]c2c1 (mixture of isomers) [Example 19, 3:1 mixture of 7-(2-cyano-(E)-ethenyl)-4(5H),10-dioxo-1H-1,2,3-triazolo[4,5-c][l]benzazepine and 7-(2-cyano-(Z)-ethenyl)-4(5H),10-dioxo-1H-1,2,3-triazolo[4,5-c][l]benzazepine] | 8.37 | 
O=c1[nH]c2ccccc2c(=O)c2[nH]nnc12 [Example 1, 4(5H),10-dioxo-1H-1,2,3-triazolo[4,5-c][l]benzazepine] | 7.92 | inhibition in vivo at 30 mg/kg [2, 3]: 56.4%; inhibition in vivo at 30 mg/kg [2, 4]: 24.5%
Cc1cccc2c(=O)c3[nH]nnc3c(=O)[nH]c12 [Example 3, 6-methyl-4(5H),10-dioxo-1H-1,2,3-triazolo[4,5-c][l]benzazepine] | 7.43 | inhibition in vivo at 30 mg/kg [2, 3]: 46.6%; inhibition in vivo at 30 mg/kg [2, 4]: 24.2%
Cc1ccc2c(=O)c3[nH]nnc3c(=O)[nH]c2c1 [Example 4, 7-methyl-4(5H),10-dioxo-1H-1,2,3-triazolo[4,5-c][l]benzazepine] | 8.64 | inhibition in vivo at 30 mg/kg [2, 3]: 70.5%; inhibition in vivo at 30 mg/kg [2, 4]: 57.7%
Cc1ccc2[nH]c(=O)c3nn[nH]c3c(=O)c2c1 [Example 5, 8-methyl-4(5H),10-dioxo-1H-1,2,3-triazolo[4,5-c][l]benzazepine] | 7.89 | inhibition in vivo at 30 mg/kg [2, 3]: 48.7%; inhibition in vivo at 30 mg/kg [2, 4]: 28.9%
CCc1ccc2c(=O)c3[nH]nnc3c(=O)[nH]c2c1 [Example 12, 7-ethyl-4(5H),10-dioxo-1H-1,2,3-triazolo[4,5-c][l]benzazepine] | 8.21 | inhibition in vivo at 10 mg/kg [2, 5]: 59%; inhibition in vivo at 10 mg/kg [2, 6]: 53%
COC(=O)/C=C/c1ccc2c(=O)c3[nH]nnc3c(=O)[nH]c2c1 [Example 16, 7-(2-methoxycarbonyl-(E)-ethenyl)-4(5H),10-dioxo-1H-1,2,3-triazolo[4,5-c][l]benzazepine] | 8.59 | inhibition in vivo at 10 mg/kg [2, 5]: 79%; inhibition in vivo at 10 mg/kg [2, 6]: 80%
COC(=O)CCc1ccc2c(=O)c3[nH]nnc3c(=O)[nH]c2c1 [Example 17, 7-(2-methoxycarbonylethyl)-4(5H),10-dioxo-1H-1,2,3-triazolo[4,5-c][l]benzazepine] | 8.39 | 
O=C(O)/C=C/c1ccc2c(=O)c3[nH]nnc3c(=O)[nH]c2c1 [Example 18] | 8.35 | 
CC(=O)/C=C/c1ccc2c(=O)c3[nH]nnc3c(=O)[nH]c2c1 [Example 20, 7-(3-oxo-(E)-butenyl)-4(5H),10-dioxo-1H-1,2,3-triazolo[4,5-c][l]benzazepine] | 8.54 | inhibition in vivo at 10 mg/kg [2, 5]: 63%; inhibition in vivo at 10 mg/kg [2, 6]: 51%
CCOc1ccc2c(=O)c3[nH]nnc3c(=O)[nH]c2c1 [Example 27, 7-ethoxy-4(5H),10-dioxo-1H-1,2,3-triazolo[4,5-c][l]benzazepine] | 8.07 | inhibition in vivo at 10 mg/kg [2, 5]: 48%; inhibition in vivo at 10 mg/kg [2, 6]: 55%
CC(=O)COc1ccc2c(=O)c3[nH]nnc3c(=O)[nH]c2c1 [Example 34, 7-acetonyloxy-4(5H),10-dioxo-1H-1,2,3-triazolo[4,5-c][l]benzazepine] | 8.46 | 
COc1ccc(C(=O)COc2ccc3c(=O)c4[nH]nnc4c(=O)[nH]c3c2)cc1 [Example 37, 7-(4-methoxyphenacyloxy)-4(5H),10-dioxo-1H-1,2,3-triazolo[4,5-c][l]benzazepine] | 8.12 | 
Cc1cc2[nH]c(=O)c3nn[nH]c3c(=O)c2cc1C [Example 44, 7,8-dimethyl-4(5H),10-dioxo-1H-1,2,3-triazolo[4,5-c][l]benzazepine] | 8.07 | 
COc1cc2c(=O)c3[nH]nnc3c(=O)[nH]c2cc1C [Example 45, 8-methoxy-7-methyl-4(5H),10-dioxo-1H-1,2,3-triazolo[4,5-c][l]benzazepine] | 8.54 | 
Cc1ccc2c(=O)c3[nH]nnc3c(=O)[nH]c2c1 [Example 46, 7-methyl-4(5H),10-dioxo-1H-1,2,3-triazolo[4,5-c][l]benzazepine] |  | inhibition in vivo at 10 mg/kg [2, 5]: 64%; inhibition in vivo at 10 mg/kg [2, 6]: 68%
COC(=O)/C(C)=C/c1ccc2c(=O)c3[nH]nnc3c(=O)[nH]c2c1 [Example 50] | 8.44 | 

Compound | pIC50 [1] | also measured
COc1ccc(C(=O)/C=C/c2ccc3c(=O)c4[nH]nnc4c(=O)[nH]c3c2)cc1 [Example 51, 7-(2-(4-methoxybenzoyl)-(E)-ethenyl)-4(5H1), 10-dioxo-1H-1,2,3-triazolo[4,5-c][l]benzazepine] | 8.11 | 
O=C(/C=C/c1ccc2c(=O)c3[nH]nnc3c(=O)[nH]c2c1)NCc1ccccc1 [Example 53, 7-(2-(N-benzylcarbamoyl)-(E)-ethenyl)-4(5H),10-dioxo-1H-1,2,3-triazolo[4,5-c][l]benzazepine] | 8.36 | 
O=C(/C=C/c1ccc2c(=O)c3[nH]nnc3c(=O)[nH]c2c1)NCc1ccccn1 [Example 54, 4(5H),10-dioxo-7-(2-(N-(2-pyridylmethyl)carbamoyl)-(E)-ethenyl)-1H-1,2,3-triazolo[4,5-c][l]benzazepine] | 8.44 | 
O=C(/C=C/c1ccc2c(=O)c3[nH]nnc3c(=O)[nH]c2c1)Nc1nn[nH]n1 [Example 56, 4(5H),10-dioxo-7-(2-(N-(1H-tetrazol-5-yl)carbamoyl)-(E)-ethenyl)-1H-1,2,3-triazolo[4,5-c][l]benzazepine] | 8.33 | 
O=c1[nH]c2cc(C=NO)ccc2c(=O)c2[nH]nnc12 [Example 57, 7-(hydroxyimino)methyl-4(5H),10-dioxo-1H-1,2,3-triazolo[4,5-c][l]benzazepine] | 8.62 | 
CON=Cc1ccc2c(=O)c3[nH]nnc3c(=O)[nH]c2c1 [Example 58, 7-(methoxyimino)methyl-4(5H),10-dioxo-1H-1,2,3-triazolo[4,5-c][l]benzazepine] | 8.09 | 
CS(=O)(=O)NCc1ccc2c(=O)c3[nH]nnc3c(=O)[nH]c2c1 [Example 68, 7-(N-methanesulfonylaminomethyl)-4(5H),10-dioxo-1H-1,2,3-triazolo[4,5-c][l]benzazepine] | 8.46 | 
O=c1[nH]c2cc(CNS(=O)(=O)c3ccc(F)cc3)ccc2c(=O)c2[nH]nnc12 [Example 70, 7-(N-(4-fluorobenzenesulfonyl)aminomethyl)-4(5H),10-dioxo-1H-1,2,3-triazolo[4,5-c][l]benzazepine] | 8.21 | 
COc1ccccc1C(=O)COc1ccc2c(=O)c3[nH]nnc3c(=O)[nH]c2c1 [Example 73, 7-(2-methoxyphenacyloxy)-4(5H),10-dioxo-1H-1,2,3-triazolo[4,5-c][l]benzazepine] | 8.32 | 
O=C(COc1ccc2c(=O)c3[nH]nnc3c(=O)[nH]c2c1)c1ccc(Cl)cc1 [Example 74, 7-(4-chlorophenacyloxy)-4(5H),10-dioxo-1H-1,2,3-triazolo[4,5-c][l]benzazepine] | 8.35 | 
O=c1[nH]c2cc(OCCCOc3ccccc3)ccc2c(=O)c2[nH]nnc12 [Example 75, 4(5H),10-dioxo-7-(3-phenoxypropoxy)-IH-1,2,3-triazolo[4,5-c][l]benzazepine] | 8.40 | 
O=c1[nH]c2cc(OCCOc3ccccc3)ccc2c(=O)c2[nH]nnc12 [Example 78, 4(5H),10-dioxo-7-(2-phenoxyethoxy)-1H-1,2,3-triazolo[4,5-c][l]benzazepine] | 8.44 | 
O=C(CCc1ccccc1)COc1ccc2c(=O)c3[nH]nnc3c(=O)[nH]c2c1 [Example 79, 4(5H),10-dioxo-7-(2-oxo-4-phenylbutoxy)-1H-1,2,3-triazolo[4,5-c][l]benzazepine] | 8.44 | 
O=c1[nH]c2cc(OCC(O)CCc3ccccc3)ccc2c(=O)c2[nH]nnc12 (centres unmarked) [Example 80, 7-(2-hydroxy-4-phenylbutoxy)-4(5H),10-dioxo-1H-1,2,3-triazolo[4,5-c][l]benzazepine] | 8.33 | 
O=c1[nH]c2cc(OCCCN3CCN(Cc4ccccc4)CC3)ccc2c(=O)c2[nH]nnc12 [Example 81, 7-(3-(4-benzyl-1-piperazinyl)propoxy)-4(5H),10-dioxo-1H-1,2,3-triazolo[4,5-c][l]benzazepine] | 8.42 | 
COc1ccccc1C(=O)COc1ccc2[nH]c(=O)c3nn[nH]c3c(=O)c2c1 [Example 87, 8-(2-methoxyphenacyloxy)-4(5H),10-dioxo-1H-1,2,3-triazolo[4,5-c][l]benzazepine] | 8.13 | 

— patent publication US5840895A, “Triazole intermediates for tricyclic benzazepine and benzothiazepine derivatives” (Meiji Seika Kabushiki Kaisha, priority 1993, dated 1998)
